Test results as given in patent US11053219B2, “Substituted pyridines as TYK2 inhibitors” (FronThera U.S. Pharmaceuticals LLC, priority 2018, dated 2021).
Like-named read-outs stand apart in the source and are kept apart here.

Tests used:
TYK2 (JH2 domain) = TYK2 (JH2 domain) (Homo sapiens (Human), UniProt P29597); test: TYK2 JH2 domain binding assay (DiscoverX KINOMEscan); settings: 11-point 3-fold dilution, duplicate
[1] = test system: IL12-induced p-STAT4 in human PBMC; test: IL-12 induced pSTAT4 in human PBMC; format: cell-based; settings: read-out: p-STAT4 IC50
[2] = test system: INFα induced pSTAT5 in human PBMC; test: INFα induced pSTAT5 in human PBMC; format: cell-based; settings: human PBMC, INFα 5000 units/ml; read-out: p-STAT5 IC50

TYK2 (JH2 domain), sequence (P29597 589-875): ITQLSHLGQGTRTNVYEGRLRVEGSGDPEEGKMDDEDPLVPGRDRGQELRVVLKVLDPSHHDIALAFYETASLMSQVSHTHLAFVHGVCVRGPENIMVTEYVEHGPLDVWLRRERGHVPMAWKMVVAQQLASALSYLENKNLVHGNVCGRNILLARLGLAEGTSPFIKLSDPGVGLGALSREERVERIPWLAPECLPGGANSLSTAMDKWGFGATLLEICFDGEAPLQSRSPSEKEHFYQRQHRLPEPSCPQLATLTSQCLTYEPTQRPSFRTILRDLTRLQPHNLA

Kd (TYK2 (JH2 domain)) [µM] | SMILES | IC50 ([1]; human PBMC, IL-12 10 ng/ml) [µM] | IC50 [2] [µM] | IC50 ([1]; Homo sapiens, PBMC) [µM]
≤ 0.001 | [2H]C([2H])([2H])NC(=O)c1nnc(N2CCN(CC(C)C)C2=O)cc1Nc1cccc(-c2ncn(C)n2)c1OC [Example 17, 6-(3-isobutyl-2-oxo-imidazolidin-1-yl)-4-[2-methoxy-3-(1-methyl-1,2,4-triazol-3-yl)anilino]-N-(trideuteriomethyl)pyridazine-3-carboxamide] | < 0.1 | – | –
≤ 0.001 | [2H]C([2H])([2H])NC(=O)c1nnc(N2CCN(C3CCCC3)C2=O)cc1Nc1cccc(-c2ncn(C)n2)c1OC [Example 18, 6-(3-cyclopentyl-2-oxo-imidazolidin-1-yl)-4-[2-methoxy-3-(1-methyl-1,2,4-triazol-3-yl)anilino]-N-(trideuteriomethyl)pyridazine-3-carboxamide] | < 0.1 | – | –
≤ 0.001 | [2H]C([2H])([2H])NC(=O)c1nnc(N2CCN(C34CC(C3)C4)C2=O)cc1Nc1cccc(-c2ncn(C)n2)c1OC [Example 19, 6-[3-(3-bicyclo[1.1.1]pentanyl)-2-oxo-imidazolidin-1-yl]-4-[2-methoxy-3-(1-methyl-1,2,4-triazol-3-yl)anilino]-N-(trideuteriomethyl)pyridazine-3-carboxamide] | < 0.1 | – | –
≤ 0.001 | [2H]C([2H])([2H])NC(=O)c1nnc(N2CCN(C3CCC3)C2=O)cc1Nc1cccc(-c2ncn(C)n2)c1OC([2H])([2H])[2H] [Example 20, 6-(3-cyclobutyl-2-oxo-imidazolidin-1-yl)-4-[3-(1-methyl-1,2,4-triazol-3-yl)-2-(trideuteriomethoxy)anilino]-N-(trideuteriomethyl)pyridazine-3-carboxamide] | < 0.1 | – | –
≤ 0.001 | [2H]C([2H])([2H])NC(=O)c1nnc(N2CCN(C3CCC3)C2=O)cc1Nc1cccc(-c2ncn(C([2H])([2H])[2H])n2)c1OC [Example 22, 6-(3-cyclobutyl-2-oxo-imidazolidin-1-yl)-4-[2-methoxy-3-[1-(trideuteriomethyl)-1,2,4-triazol-3-yl]anilino]-N-(trideuteriomethyl)pyridazine-3-carboxamide] | < 0.1 | – | –
– | [2H]C1([2H])CN(C(=O)Nc2cc(Nc3cccc(-c4ncn(C)n4)c3OC)c(C(=O)NC([2H])([2H])[2H])nn2)C1 [Example 31] | < 0.1 | – | –
– | [2H]C([2H])([2H])Oc1c(Nc2cc(NC(=O)C3CC3)ncc2C(=O)C2CC2)cccc1-c1ncn(C)n1 [Example 34] | – | – | < 0.1
≤ 0.001 | [2H]C([2H])([2H])NC(=O)c1nnc(NC(=O)N2CC(F)(F)C2)cc1Nc1cccc(-c2ncn(C)n2)c1OC [Example 47] | < 0.1 | – | –
≤ 0.001 | [2H]C([2H])([2H])NC(=O)c1cnc(N2CCN(C(C)C)C2=O)cc1Nc1cccc(-c2ncn(C)n2)c1OC [Example 48] | < 0.1 | – | –
≤ 0.001 | COc1c(Nc2cc(Nc3ccncn3)ncc2C(=O)C2CC2)cccc1-c1ncn(C)n1 [Example 52] | < 0.1 | – | –
≤ 0.001 | [2H]C([2H])([2H])NC(=O)c1nnc(N2CCN(C3C[C@@H]3F)C2=O)cc1Nc1cccc(-c2ncn(C)n2)c1OC (some centres unmarked) [Example 78] | < 0.1 | – | –
≤ 0.001 | [2H]C([2H])([2H])NC(=O)c1nnc(N2CCN(C(C)CO)C2=O)cc1Nc1cccc(-c2ncn(C)n2)c1OC (centres unmarked) [Example 85] | 0.1 to 1 | – | –
≤ 0.001 | [2H]C([2H])([2H])NC(=O)c1nnc(N2CCN(C3(C)CC3)C2=O)cc1Nc1cccc(-c2ncn(C)n2)c1OC [Example 88] | < 0.1 | – | –
≤ 0.001 | [2H]C([2H])([2H])NC(=O)c1nnc(N2CCN(CCCC)C2=O)cc1Nc1cccc(-c2ncn(C)n2)c1OC [Example 91] | < 0.1 | – | –
≤ 0.001 | [2H]C([2H])([2H])NC(=O)c1nnc(N2CCN(C3CCC(F)(F)CC3)C2=O)cc1Nc1cccc(-c2ncn(C)n2)c1OC [Example 94] | < 0.1 | – | –
≤ 0.001 | [2H]C([2H])([2H])NC(=O)c1nnc(N2CCN(C3(C#N)CC3)C2=O)cc1Nc1cccc(-c2ncn(C)n2)c1OC [Example 95] | < 0.1 | – | –
≤ 0.001 | [2H]C([2H])([2H])NC(=O)c1nnc(N2CCN(CC3CCC3)C2=O)cc1Nc1cccc(-c2ncn(C)n2)c1OC [Example 96] | < 0.1 | – | –
≤ 0.001 | [2H]C([2H])([2H])NC(=O)c1nnc(N2CCN(C3CCCOC3)C2=O)cc1Nc1cccc(-c2ncn(C)n2)c1OC (centres unmarked) [Example 98] | < 0.1 | – | –
≤ 0.001 | [2H]C([2H])([2H])NC(=O)c1nnc(N2CCN(CCC)C2=O)cc1Nc1cccc(-c2ncn(C)n2)c1OC [Example 99] | < 0.1 | – | –
≤ 0.001 | [2H]C([2H])([2H])NC(=O)c1nnc(N2CCN(C3CC(C)C3)C2=O)cc1Nc1cccc(-c2ncn(C)n2)c1OC (centres unmarked) [Example 100] | < 0.1 | – | –
≤ 0.001 | COc1c(Nc2cc(Nc3cc(F)ccn3)ncc2C(=O)C2CC2)cccc1-c1ncn(C)n1 [Example 108] | – | < 0.1 | –
≤ 0.001 | CC(C)(O)c1ccc(Nc2cc(Nc3ncccc3S(C)(=O)=O)c(C(=O)C3CC3)cn2)nc1 [Example 126] | – | < 0.1 | –

Kd (TYK2 (JH2 domain)) [µM] | SMILES | IC50 ([1]; human PBMC, IL-12 10 ng/ml) [µM] | IC50 [2] [µM] | IC50 ([1]; Homo sapiens, PBMC) [µM]
≤ 0.001 | COc1c(Nc2cc(Nc3cc(C)c(F)cn3)ncc2C(=O)C2CC2)cccc1-c1ncn(C)n1 [Example 145] | – | < 0.1 | –
– | [2H]C([2H])([2H])NC(=O)c1nnc(NC(=O)N2CCC2C)cc1Nc1cccc(-c2ncn(C)n2)c1OC (centres unmarked) [Example 164, 4-((2-methoxy-3-(1-methyl-1H-1,2,4-triazol-3-yl)phenyl)amino)-N-(methyl-d3)-6-(2-methylazetidine-1-carboxamido)pyridazine-3-carboxamide] | – | < 0.1 | –
– | [2H]C([2H])([2H])NC(=O)c1nnc(NC(=O)N2CC(C)(O)C2)cc1Nc1cccc(-c2ncn(C)n2)c1OC [Example 165] | – | 0.1 to 1 | –
– | [2H]C([2H])([2H])NC(=O)c1nnc(NC(=O)N2CC(CO)C2)cc1Nc1cccc(-c2ncn(C)n2)c1OC [Example 169] | – | < 0.1 | –
– | [2H]C([2H])([2H])CC(=O)c1cnc(NC(=O)C2CC2)cc1Nc1cccc(-c2ncn(C)n2)c1OC [Example 171] | – | < 0.1 | –
– | [2H]C([2H])([2H])CC(=O)c1cnc(Nc2ccc(C(C)(C)O)cn2)cc1Nc1ncccc1S(C)(=O)=O [Example 172] | – | < 0.1 | –
– | COc1c(Nc2cc(Nc3ncc[nH]3)ncc2C(=O)C2CC2)cccc1-c1ncn(C)n1 [Example 173] | – | 0.1 to 1 | –
– | CCC(=O)c1cnc(Nc2ccc(C(C)(C)O)c(F)n2)cc1Nc1ncccc1S(C)(=O)=O [Example 174] | – | < 0.1 | –
– | CCC(=O)c1cnc(Nc2cccc(C#N)n2)cc1Nc1nccc(-c2ncn(C)n2)c1OC [Example 175] | – | < 0.1 | –
– | CCC(=O)c1cnc(Nc2cccc(C#N)n2)cc1Nc1ncccc1S(C)(=O)=O [Example 176] | – | < 0.1 | –
– | CCC(=O)c1cnc(Nc2cccc(C#N)n2)cc1Nc1cccc(-c2ncn(C)n2)c1OC [Example 177] | – | < 0.1 | –
– | CCC(=O)c1cnc(Nc2cc(C)n(C)n2)cc1Nc1cccc(-c2ncn(C)n2)c1OC [Example 178] | – | < 0.1 | –
– | CCC(=O)c1cnc(Nc2cc(C)n(C)n2)cc1Nc1ncccc1S(C)(=O)=O [Example 179] | – | < 0.1 | –
– | CCC(=O)c1cnc(Nc2cc(C)n(C)n2)cc1Nc1nccc(-c2ncn(C)n2)c1OC [Example 180] | – | < 0.1 | –
– | [2H]C([2H])([2H])CC(=O)c1cnc(Nc2ccc(C(C)(C)O)c(F)n2)cc1Nc1ncccc1S(C)(=O)=O [Example 184] | – | < 0.1 | –
– | [2H]C([2H])([2H])CC(=O)c1cnc(Nc2ccc(C(C)(C)O)c(F)n2)cc1Nc1nccc(-c2ncn(C)n2)c1OC [Example 185] | – | < 0.1 | –
– | [2H]C([2H])([2H])n1cnc(-c2cccc(Nc3cc(NC(=O)C4CC4)ncc3C(=O)CC)c2OC)n1 [Example 189] | – | < 0.1 | –
– | [2H]C([2H])([2H])CC(=O)c1cnc(Nc2ccc(C)nn2)cc1Nc1ncccc1S(C)(=O)=O [Example 190] | – | < 0.1 | –
– | [2H]C([2H])([2H])CC(=O)c1cnc(Nc2cc(C)nc(C)n2)cc1Nc1ncccc1S(C)(=O)=O [Example 191] | – | < 0.1 | –
– | [2H]C([2H])([2H])CC(=O)c1cnc(NC(=O)C2CC2)cc1Nc1nccc(-c2ncn(C)n2)c1OC [Example 193] | – | < 0.1 | –
– | COc1c(Nc2cc(Nc3nc(C)c[nH]3)ncc2C(=O)C2CC2)cccc1-c1ncn(C)n1 [Example 196] | – | 0.1 to 1 | –

SMILES | Kd (TYK2 (JH2 domain)) [µM] | IC50 ([1]; human PBMC, IL-12 10 ng/ml) [µM] | IC50 [2] [µM] | IC50 ([1]; Homo sapiens, PBMC) [µM]
[2H]C([2H])([2H])NC(=O)c1nnc(N2CCN(C(C([2H])([2H])[2H])C([2H])([2H])[2H])C2=O)cc1Nc1cccc(-c2ncn(C([2H])([2H])[2H])n2)c1OC [Example 21, 6-(3-isopropyl-2-oxo-imidazolidin-1-yl)-4-[2-methoxy-3-(1-methyl-1,2,4-triazol-3-yl)anilino]-N-(trideuteriomethyl)pyridazine-3-carboxamide] | ≤ 0.001 | < 0.1 | – | –
[2H]C([2H])([2H])NC(=O)c1nnc(NC(=O)N2CCC2)cc1Nc1cccc(-c2ncn(C)n2)c1OC [Example 28] | ≤ 0.001 | – | < 0.1 | –
[2H]C([2H])([2H])NC(=O)c1nnc(NC(=O)N2CCCC2)cc1Nc1cccc(-c2ncn(C)n2)c1OC [Example 29] | ≤ 0.001 | – | – | < 0.1
CNC(=O)c1nnc(NC(=O)N2CCC2)cc1Nc1cccc(-c2ncn(C)n2)c1OC [Example 30] | ≤ 0.001 | < 0.1 | – | –
[2H]C([2H])([2H])NC(=O)c1nnc(NC(=O)N2CC3(CCC3)C2)cc1Nc1cccc(-c2ncn(C)n2)c1OC [Example 32] | ≤ 0.001 | – | – | < 0.1
COc1c(Nc2cc(NC(=O)N3CCC3)ncc2C(=O)C2CC2)cccc1-c1ncn(C)n1 [Example 33] | ≤ 0.001 | – | – | < 0.1
COc1c(Nc2cc(NC(=O)C(C)C)ncc2C(=O)C2CC2)cccc1-c1ncn(C)n1 [Example 36] | ≤ 0.001 | < 0.1 | – | –
[2H]C([2H])([2H])NC(=O)c1nnc(NC(=O)N2CCC2)cc1Nc1cccc(-c2ncn(C)n2)c1OC [Example 50] | ≤ 0.001 | < 0.1 | – | –
